Test results reported in patent US11578055B2, “Triazacyclododecansulfonamide (“TCD”)-based protein secretion inhibitors” (KEZAR LIFE SCIENCES, priority 2018, dated 2023).
pEC50, pIC50: −log10 of the molar value.

Key:
[1] = tested on: full length TNFα (amino acids 1-233) fused to Gaussia Luciferase; assay: Dox Induced TNFα-FL-Gluc Assay; type: cell-based; conditions: 24 hr, 293FRT/TO; read-out: 24 hr Dox Inducible TNFaFLGluc 293FRT/TO: Mean IC50
Method in brief: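 Compounds diluted in DMSO/medium with doxycycline were incubated at 37° C, 5% CO2 with 293 T-REx cells stably carrying a Tet-regulated TNFα(1-233)-Gaussia luciferase construct. Data for structures drawn without stereochemistry refer to stereoisomer mixtures.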

[2] = tested on: PD1 signal sequence plus 10 amino acids fused to Gaussia Luciferase (PD1-ss+10aa/Gaussia Luciferase); assay: Dox Induced PD1-ss-Gluc Assay; type: cell-based; conditions: 24 hr, 293FRT/TO; read-out: 24 hr Dox Inducible PD1ssGluc 293FRT/TO: Mean IC50
Method in brief: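 Compound dilutions in DMSO/media containing doxycycline were applied to a stable, inducible 293 T-REx line carrying the luciferase fusion, then incubated at 37 °C, 5% CO2. Where stereochemistry is not drawn, values relate to isomer mixtures.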

[3] = tested on: multiple myeloma cell line NCl-H929; assay: H929 Cell Viability Assay; type: cell-based, human; conditions: Homo sapiens, NCI-H929, 48 h, H929, read-out: 48 hr H929 Viability Celltiter-Glo: Mean EC50
Method in brief: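 Viability was determined by CellTiter-Glo luminescence after a 48 h, 37 °C exposure of NCI-H929 cells to serial compound dilutions in medium containing 10% FBS. Where stereochemistry is not shown, values refer to a mix of stereoisomers.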

[4] = In Vitro Microsome Stability Assay (rat); type: in vitro ADME; conditions: rat, 30 min, NADPH
Method in brief: (§1)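 Species liver microsomes in potassium phosphate buffer were preincubated at 37 °C for 3–5 min with test compound (added from 0.25 mM DMSO stock), then started with NADPH. Samples at 0 and 30 min were quenched with acetonitrile containing internal standard and analysed by LC-MS/MS; % remaining at 30 min used analyte/IS AUC ratios relative to t=0.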

[5] = tested on: multiple myeloma cell line U266B1; assay: U266 Cell Viability Assay; type: cell-based, human; conditions: Homo sapiens, U-266; 48 hr, U266; read-out: 48 hr U266 Viability Celltiter-Glo: Mean EC50
Method in brief: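 Viability was measured by CellTiter-Glo luminescence after 48 h compound exposure at 37° C, 5% CO2. The cells were U266B1 multiple myeloma cells grown in RPMI 1640 plus 10% FBS. Where stereochemistry is not shown, values apply to the stereoisomer mixture.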

[6] = In Vitro Microsome Stability Assay (monkey); type: in vitro ADME; conditions: monkey, 30 min, NADPH
Method in brief: as §1

[7] = In Vitro Microsome Stability Assay (mouse); type: in vitro ADME; conditions: mouse, 30 min, NADPH
Method in brief: as §1

[8] = In Vitro Microsome Stability Assay (human); type: in vitro ADME; conditions: human, 30 min, NADPH
Method in brief: as §1

SMILES	pIC50 [1]	pIC50 [2]	pEC50 [3]	Liver Microsome Stability-% Left after 30 min w/ NADPH (%) Rat [4] [%]	pEC50 [5]	Liver Microsome Stability-% Left after 30 min w/ NADPH (%) Monkey [6] [%]	Liver Microsome Stability-% Left after 30 min w/ NADPH (%) Mouse [7] [%]	Liver Microsome Stability-% Left after 30 min w/ NADPH (%) Human [8] [%]
C=C1CN(S(=O)(=O)c2ccc(N(C)C)cc2)CCCN(CC2CCCCC2)CCCN(S(=O)(=O)N2CC=C(C3=CCCCC3)CC2)C1 [A68, 4-[(5-{[4-(cyclohex-1-en-1-yl)-1,2,3,6-tetrahydropyridin-1-yl]sulfonyl}-9-(cyclohexylmethyl)-3-methylidene-1,5,9-triazacyclododecan-1-yl)sulfonyl}-N,N-dimethylaniline]	5.19	6.81	< 4.60	57.1	< 4.60	57.1	55.1	50.5
C=C1CN(S(=O)(=O)c2ccc(N(C)C)cc2)CCCN(CC2CCCCC2)CCCN(S(=O)(=O)N2CCC(C3CCOCC3)CC2)C1 [A78, 4-{[9-(cyclohexylmethyl)-3-methylidene-5-{[4-(oxan-4-yl)piperidin-1-yl]sulfonyl}-1,5,9-triazacyclododecan-1-yl]sulfonyl}-N,N-dimethylaniline]	< 4.60	6.44	< 4.60	0.25	< 4.60	0.11	0.15	0.2
C=C1CN(S(=O)(=O)c2ccc(N(C)C)cc2)CCCN(CC2CCCCC2)CCCN(S(=O)(=O)N2CCC(n3cccn3)CC2)C1 [A79, 4-{[9-(cyclohexylmethyl)-3-methylidene-5-{[4-(1H-pyrazol-1-yl)piperidin-1-yl]sulfonyl}-1,5,9-triazacyclododecan-1-yl]sulfonyl}-N,N-dimethylaniline]	< 4.60	6.39	< 4.60	0.1	< 4.60	0.06	10.6	0.16
C=C1CN(S(=O)(=O)c2ccc(N(C)C)cc2)CCCN(CC2CCCCC2)CCCN(S(=O)(=O)N2CCC(c3nc4ccccc4o3)CC2)C1 [A80, 4-[(5-{[4-(1,3-benzoxazol-2-yl)piperidin-1-yl]sulfonyl}-9-(cyclohexylmethyl)-3-methylidene-1,5,9-triazacyclododecan-1-yl)sulfonyl]-N,N-dimethylaniline]	< 4.60	6.56	< 4.60	14.1	< 4.60	2.56	13.4	10.8
C=C1CN(S(=O)(=O)c2ccc(N(C)C)cc2)CCCN(CC2CCCCC2)CCCN(S(=O)(=O)N2CCC(c3ncccn3)CC2)C1 [A81, 4-{[9-(cyclohexylmethyl)-3-methylidene-5-{[4-(pyrimidin-2-yl)piperidin-1-yl]sulfonyl}-1,5,9-triazacyclododecan-1-yl]sulfonyl}-N,N-dimethylaniline]	< 4.60	6.32	< 4.60	0.12	< 4.60	0.03	0.12	0.2

Next, values leading:

pIC50 [1]	pIC50 [2]	pEC50 [3]	Liver Microsome Stability-% Left after 30 min w/ NADPH (%) Rat [4] [%]	pEC50 [5]	Liver Microsome Stability-% Left after 30 min w/ NADPH (%) Monkey [6] [%]	Liver Microsome Stability-% Left after 30 min w/ NADPH (%) Mouse [7] [%]	Liver Microsome Stability-% Left after 30 min w/ NADPH (%) Human [8] [%]	SMILES
< 4.60	6.87	< 4.60	74.3	< 4.60	58.2	64.6	63	C=C1CN(S(=O)(=O)c2ccc(N(C)C)cc2)CCCN(CC2CCCCC2)CCCN(S(=O)(=O)N2CC=C(c3cccc(Cl)c3)CC2)C1 [A69, 4-[(5-{[4-(3-chlorophenyl)-1,2,3,6-tetrahydropyridin-1-yl]sulfonyl}-9-(cyclohexylmethyl)-3-methylidene-1,5,9-triazacyclododecan-1-yl)sulfonyl]-N,N-dimethylaniline]
5.89	7.34	5.52	6.75	< 4.60	3.26	3.14	1.36	C=C1CN(S(=O)(=O)c2ccc(N(C)C)cc2)CCCN(CC2CCCCC2)CCCN(S(=O)(=O)N2CCc3cc(C#N)ccc3C2)C1 [A70, 2-{[9-(cyclohexylmethyl)-5-[4-(dimethylamino)benzenesulfonyl]-3-methylidene-1,5,9-triazacyclododecan-1-yl]sulfonyl}-1,2,3,4-tetrahydroisoquinoline-6-carbonitrile]
5.70	7.20	5.11	17.2	< 4.60	6.75	11.5	5.55	C=C1CN(S(=O)(=O)c2ccc(N(C)C)cc2)CCCN(CC2CCCCC2)CCCN(S(=O)(=O)N2CCc3cc(OC)ccc3C2)C1 [A71, 4-{[9-(cyclohexylmethyl)-5-[(6-methoxy-1,2,3,4-tetrahydroisoquinolin-2-yl)sulfonyl]-3-methylidene-1,5,9-triazacyclododecan-1-yl]sulfonyl}-N,N-dimethylaniline]
5.16	7.02	4.99	54.6	< 4.60	53.2	43.3	62.5	C=C1CN(S(=O)(=O)c2ccc(N(C)C)cc2)CCCN(CC2CCCCC2)CCCN(S(=O)(=O)N2CCC(c3ccc(Cl)cc3)CC2)C1 [A72, 4-[(5-{[4-(4-chlorophenyl)piperidin-1-yl]sulfonyl}-9-(cyclohexylmethyl)-3-methylidene-1,5,9-triazacyclododecan-1-yl)sulfonyl]-N,N-dimethylaniline]
5.73	7.43	5.46	71.5	< 4.60	25.4	16.3	18.2	C=C1CN(S(=O)(=O)c2ccc(N(C)C)cc2)CCCN(CC2CCCCC2)CCCN(S(=O)(=O)N2CC=C(c3ccccc3Cl)CC2)C1 [A73, 4-[(5-{[4-(2-chlorophenyl)-1,2,3,6-tetrahydropyridin-1-yl]sulfonyl}-9-(cyclohexylmethyl)-3-methylidene-1,5,9-triazacyclododecan-1-yl)sulfonyl]-N,N-dimethylaniline]
5.81	7.52	5.64	0.16	< 4.60	0.23	0.08	0.3	C=C1CN(S(=O)(=O)c2ccc(N(C)C)cc2)CCCN(CC2CCCCC2)CCCN(S(=O)(=O)N2CCc3nc(Cl)ccc3C2)C1 [A82, 4-({5-[(2-chloro-5,6,7,8-tetrahydro-1,6-naphthyridin-6-yl)sulfonyl]-9-(cyclohexylmethyl)-3-methylidene-1,5,9-triazacyclododecan-1-yl}sulfonyl)-N,N-dimethylaniline]
6.02	7.55	6.02	47.6	< 4.60	34.9	23.4	39.3	C=C1CN(S(=O)(=O)c2ccc(N(C)C)cc2)CCCN(CC2CCCCC2)CCCN(S(=O)(=O)N2CCN(c3ccccc3Cl)CC2)C1 [A83, 4-[(5-{[4-(2-chlorophenyl)piperazin-1-yl]sulfonyl}-9-(cyclohexylmethyl)-3-methylidene-1,5,9-triazacyclododecan-1-yl)sulfonyl]-N,N-dimethylaniline]
